Results on seven compounds are retold here after ChEMBL document CHEMBL4190189, “Exploring Jolkinol D Derivatives To Overcome Multidrug Resistance in Cancer” (J Nat Prod, 2017).

In data set [1] the test system is L5178Y. Briefly: Cytotoxicity against mouse L5178Y cells assessed as reduction in cell viability after 72 hrs by MTT assay. Type of data set: cell-based.
Data set [2] deals with L5178Y. Briefly: Cytotoxicity against mouse L5178Y cells transfected with human ABCB1 assessed as reduction in cell viability after 72 hrs by MTT assay. It counts as functional, cell-based.
The target of data set [3] is T1, ATP-dependent translocase ABCB1 (Homo sapiens, UniProt P08183). As to the kind of experiment: Modulation of human ABCB1 expressed in mouse L5178Y cells assessed as fluorescence activity ratio at 2 uM pretreated for 10 mins followed by rhodamine-123 addition measured after 20 mins by flow cytometry (reference value: 0.87). It counts as cell-based.
T1 sequence (P08183 whole entry): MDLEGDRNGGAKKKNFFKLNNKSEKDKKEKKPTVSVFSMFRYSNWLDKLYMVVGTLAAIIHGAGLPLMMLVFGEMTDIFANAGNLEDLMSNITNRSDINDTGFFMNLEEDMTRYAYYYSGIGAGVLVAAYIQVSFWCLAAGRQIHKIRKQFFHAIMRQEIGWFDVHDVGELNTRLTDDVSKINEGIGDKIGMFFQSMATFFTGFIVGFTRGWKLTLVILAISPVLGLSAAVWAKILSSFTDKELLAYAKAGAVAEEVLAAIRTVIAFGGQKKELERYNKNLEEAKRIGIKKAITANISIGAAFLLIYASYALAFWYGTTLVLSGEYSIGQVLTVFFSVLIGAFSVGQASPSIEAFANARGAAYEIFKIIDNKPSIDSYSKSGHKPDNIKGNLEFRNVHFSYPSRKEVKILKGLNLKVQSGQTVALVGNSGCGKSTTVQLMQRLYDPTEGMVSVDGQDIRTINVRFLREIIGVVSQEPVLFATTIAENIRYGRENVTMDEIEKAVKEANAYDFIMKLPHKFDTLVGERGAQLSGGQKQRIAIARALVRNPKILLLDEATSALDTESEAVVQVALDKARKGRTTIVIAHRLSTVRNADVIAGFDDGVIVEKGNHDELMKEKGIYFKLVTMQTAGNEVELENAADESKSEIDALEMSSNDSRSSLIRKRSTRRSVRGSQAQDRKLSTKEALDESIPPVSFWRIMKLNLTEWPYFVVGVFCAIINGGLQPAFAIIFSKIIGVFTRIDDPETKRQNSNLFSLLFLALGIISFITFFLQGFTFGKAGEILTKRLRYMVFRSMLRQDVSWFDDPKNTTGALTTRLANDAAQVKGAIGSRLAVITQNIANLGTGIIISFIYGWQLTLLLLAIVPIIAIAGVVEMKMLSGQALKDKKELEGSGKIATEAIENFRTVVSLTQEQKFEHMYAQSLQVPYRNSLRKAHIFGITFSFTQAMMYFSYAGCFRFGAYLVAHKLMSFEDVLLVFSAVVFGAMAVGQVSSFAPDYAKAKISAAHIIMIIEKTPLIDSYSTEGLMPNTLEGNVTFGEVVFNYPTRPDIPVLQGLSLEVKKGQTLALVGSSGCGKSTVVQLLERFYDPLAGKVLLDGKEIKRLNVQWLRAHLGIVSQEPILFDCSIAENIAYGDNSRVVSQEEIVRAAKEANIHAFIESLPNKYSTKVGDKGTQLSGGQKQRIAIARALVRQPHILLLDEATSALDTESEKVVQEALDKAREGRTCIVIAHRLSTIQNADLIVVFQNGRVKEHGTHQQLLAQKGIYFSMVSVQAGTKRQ
Data set [4] deals with T1, ATP-dependent translocase ABCB1. As to the kind of experiment: Modulation of human ABCB1 expressed in mouse L5178Y cells assessed as fluorescence activity ratio at 20 uM pretreated for 10 mins followed by rhodamine-123 addition measured after 20 mins by flow cytometry (reference value: 0.87). It counts as cell-based.
For data set [5] the target is unchanged. As to the kind of experiment: Inhibition of human ABCB1 expressed in mouse L5178Y cells assessed as potentiation of doxorubicin-induced cytotoxicity by measuring combination index at 50:1 compound to doxorubicin ratio after 48 hrs by MTT assay. Type of data set: cell-based.
A short description of data set [6]: Resistance ratio of IC50 for human EPP85-181P cells to IC50 for human EPP85-181RDB cells. Type of data set: functional.
A short description of data set [7]: Resistance ratio of IC50 for human EPP85-181P cells to IC50 for human EPP85-181RNOV cells. It counts as functional.
The target in data set [8] is T1, ATP-dependent translocase ABCB1. Briefly: Activation of human ABCB1 ATPase activity expressed in Sf9 insect cell membranes assessed as increase in vanadate-sensitive basal ATPase activity at 0.78 to 100 uM measured after 10 mins by colorimetric method relative to control.
The target of data set [9] is T2, ABCB1 (P-glycoprotein) ATPase (Homo sapiens, UniProt P08183). As to the kind of experiment: Inhibition of human ABCB1 ATPase activity expressed in Sf9 insect cell membranes assessed as reduction in verapamil-stimulated vanadate-sensitive ATPase activity at 3.13 to […] uM measured after 10 mins by colorimetric method relative to control. The conditions noted are these: Sf9 insect cell membranes expressing human ABCB1, probe verapamil (ATPase stimulator).
T2 sequence (P08183 whole entry): as above

The target in data set [10] is T2, ABCB1 (P-glycoprotein) ATPase. Briefly: Inhibition of human ABCB1 ATPase activity expressed in Sf9 insect cell membranes assessed as reduction in verapamil-stimulated vanadate-sensitive ATPase activity at 25 to 100 uM measured after 10 mins by colorimetric method relative to control. The conditions noted are these: Sf9 insect cell membranes expressing human ABCB1, probe verapamil (ATPase stimulator).

Data set [11] is described as follows: Cytotoxicity against human EPG85-257RNOV cells assessed as reduction in cell viability after 5 days by SRB assay. It counts as functional, cell-based. The settings on record: 120 h.
Data set [12] is described as follows: Resistance ratio of IC50 for human EPG85-257P cells to IC50 for human EPG85-257RNOV cells. It counts as functional.
Data set [13] in a line: Resistance ratio of IC50 for human EPG85-257P cells to IC50 for human EPG85-257RDB cells. It counts as functional.

Consider `COc1cccc(C(=O)O[C@H]2[C@@H](C)C[C@]3(O)C(=O)/C(C)=C/[C@@H]4[C@H](CC/C(C)=C\[C@@H]23)C4(C)C)c1`, for which the IC50 in data set [1] and in [2] was > 19 µM each time. Moreover, the Ratio in [3] was 12; in [4], 32.8. The CI in data set [5] came to 0.38.
In the case of `C/C1=C/[C@H]2[C@@H](OC(=O)c3ccc(C(F)(F)F)cc3)[C@@H](C)C[C@]2(O)C(=O)/C(C)=C/[C@@H]2[C@H](CC1)C2(C)C`, the results for the IC50 in data set [1] and in data set [2] were > 19 µM and > 80 µM, respectively. The Ratio was 3 in data set [3] and 9.9 in data set [4]. For the same compound, the “Ratio IC50” value in [6] turned out to be 0.4.
For the compound `C/C1=C/[C@H]2[C@@H](OC(=O)c3ccc(-c4ccccc4)cc3)[C@@H](C)C[C@]2(O)C(=O)/C(C)=C/[C@@H]2[C@H](CC1)C2(C)C`, the IC50 is > 19 µM in [1] and > 80 µM in data set [2]. In addition, the Ratio in data set [3] turned out to be 4.8; in [4], 19. Also, the “Ratio IC50” value in [7] and in data set [6] was 0.4 in each case.
As to `CC(=O)O[C@]12C[C@H](C)[C@H](O)[C@@H]1/C=C(\C)CC[C@H]1[C@@H](/C=C(\C)C2=O)C1(C)C` [JOLKINOL D], in data set [8], the Activity was 66 to 87%. Moreover, the figures for the inhibition at 10 min in [9] and in data set [10] were 14 to 40% and 9 to 33%, respectively.
On to `CC(=O)O[C@]12C[C@H](C)[C@H](OC(=O)c3ccc(C(F)(F)F)cc3)[C@@H]1/C=C(/C)CC[C@H]1[C@@H](/C=C(\C)C2=O)C1(C)C`, for which the IC50 in [1] is > 19 µM; in data set [2], > 80 µM; in data set [11], < 10 µM. The Ratio in data set [3] is 9.4; in data set [4], 25.4. Besides, the results for the “Ratio IC50” value in data set [12] and in [13] were 0.2 and 0.4, respectively.
On to `CC(=O)O[C@]12C[C@H](C)[C@H](OC(=O)/C=C/c3ccccc3)[C@@H]1/C=C(/C)CC[C@H]1[C@@H](/C=C(\C)C2=O)C1(C)C`, for which the IC50 in [1] and in [2] was > 19 µM throughout. Besides, the Ratio is 28.6 in data set [3] and 41.5 in data set [4]. In addition, the CI in [5] is 1.13. Also, in data set [13], the “Ratio IC50” value is listed as 0.2.
Consider `CC(=O)O[C@]12C[C@H](C)[C@H](OC(=O)c3cccc(C)c3)[C@@H]1/C=C(/C)CC[C@H]1[C@@H](/C=C(\C)C2=O)C1(C)C`, for which the IC50 was > 19 µM in [1], > 80 µM in [2] and < 10 µM in data set [11]. The values for the Ratio in data set [3] and in data set [4] were 2.2 and 18, respectively.
